Measured values as given in patent publication US10597388B2, “Pyridazinone herbicides” (FMC CORPORATION, priority 2014, dated 2020).

What was measured:
Assay in all cases: Test E greenhouse herbicide test, pre- and postemergence
Assay type in all cases: in vivo
Details in all cases: Postemergence
[1] = test system: crabgrass, Brazilian (Brazilian crabgrass, Digitaria horizontalis)
Outline: (§1)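 Herbicidal effect was judged by eye relative to untreated plants 14 to 21 d after spraying, using 0 for no effect and 100 for complete control. Preemergence sprays went onto freshly seeded silt loam; postemergence sprays onto 2–18 cm seedlings.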

[2] = test system: barnyardgrass (Echinochloa crus-galli)
Outline: as §1

[3] = test system: Italian ryegrass (Lolium multiflorum)
Outline: as §1

[4] = test system: ragweed (common ragweed, Ambrosia elatior)
Outline: as §1

[5] = test system: beggarticks (hairy beggarticks, Bidens pilosa)
Outline: as §1

[6] = test system: horseweed (Conyza canadensis)
Outline: as §1

[7] = test system: corn (Zea mays)
Outline: as §1

[8] = test system: pigweed, palmer (palmer pigweed, Amaranthus palmeri)
Outline: as §1

[9] = test system: kochia (Kochia scoparia)
Outline: as §1

[10] = test system: field bindweed (Convolvulus arvensis)
Outline: as §1

[11] = test system: panicum, fall (fall panicum, Panicum dichotomiflorum)
Outline: as §1

[12] = 62 g ai/ha, scale 0 to 100 (0 no effect, 100 complete control)
[13] = 125 g ai/ha, scale 0 to 100 (0 no effect, 100 complete control)
[14] = 250 g ai/ha, scale 0 to 100 (0 no effect, 100 complete control)
[15] = 31 g ai/ha, visual, scale 0 no effect to 100 complete control
[16] = 16 g ai/ha, visual, scale 0 no effect to 100 complete control

CCC(=O)Oc1c(C)nn(C)c(=O)c1-c1c(C)sc2ccc(C)cc12 [Compound 42]
Plant response rating, Crabgrass, Brazil [1, 12]: 35 | Plant response rating, Crabgrass, Brazil [1, 13]: 40 | Plant response rating, Crabgrass, Brazil [1, 14]: 50 | Plant response rating, Crabgrass, Brazil [1, 15]: 20 | Plant response rating, Barnyardgrass [2, 12]: 30 | Plant response rating, Barnyardgrass [2, 13]: 30 | Plant response rating, Barnyardgrass [2, 14]: 35 | Plant response rating, Barnyardgrass [2, 15]: 20 | Plant response rating, Ryegrass, Italian [3, 12]: 70 | Plant response rating, Ryegrass, Italian [3, 13]: 85 | Plant response rating, Ryegrass, Italian [3, 14]: 90 | Plant response rating, Ryegrass, Italian [3, 15]: 50 | Plant response rating, Ragweed [4, 12]: 85 | Plant response rating, Ragweed [4, 13]: 95 | Plant response rating, Ragweed [4, 14]: 90 | Plant response rating, Ragweed [4, 15]: 90 | Plant response rating, Beggarticks [5, 12]: 95 | Plant response rating, Beggarticks [5, 13]: 100 | Plant response rating, Beggarticks [5, 14]: 100 | Plant response rating, Beggarticks [5, 15]: 95 | Plant response rating, Horseweed [6, 12]: 75 | Plant response rating, Horseweed [6, 13]: 75 | Plant response rating, Horseweed [6, 14]: 85 | Plant response rating, Horseweed [6, 15]: 75 | Plant response rating, Corn [7, 12]: 15 | Plant response rating, Corn [7, 13]: 15 | Plant response rating, Corn [7, 14]: 20 | Plant response rating, Corn [7, 15]: 10 | Plant response rating, Pigweed, Palmer [8, 12]: 75 | Plant response rating, Pigweed, Palmer [8, 13]: 60 | Plant response rating, Pigweed, Palmer [8, 14]: 95 | Plant response rating, Pigweed, Palmer [8, 15]: 70 | Plant response rating, Kochia [9, 12]: 85 | Plant response rating, Kochia [9, 13]: 95 | Plant response rating, Kochia [9, 14]: 98 | Plant response rating, Kochia [9, 15]: 75 | Plant response rating, Field Bindweed [10, 12]: 85 | Plant response rating, Field Bindweed [10, 13]: 90 | Plant response rating, Field Bindweed [10, 14]: 90 | Plant response rating, Field Bindweed [10, 15]: 90 | Plant response rating, Panicum, Fall [11, 12]: 50 | Plant response rating, Panicum, Fall [11, 13]: 80 | Plant response rating, Panicum, Fall [11, 14]: 95 | Plant response rating, Panicum, Fall [11, 15]: 60

CC(=O)Oc1c(C)nn(C)c(=O)c1-c1ccc(F)c2ccccc12 [Compound 90]
Plant response rating, Crabgrass, Brazil [1, 12]: 50 | Plant response rating, Crabgrass, Brazil [1, 13]: 70 | Plant response rating, Crabgrass, Brazil [1, 16]: 50 | Plant response rating, Crabgrass, Brazil [1, 15]: 55 | Plant response rating, Barnyardgrass [2, 12]: 40 | Plant response rating, Barnyardgrass [2, 13]: 50 | Plant response rating, Barnyardgrass [2, 16]: 30 | Plant response rating, Barnyardgrass [2, 15]: 30 | Plant response rating, Ryegrass, Italian [3, 12]: 85 | Plant response rating, Ryegrass, Italian [3, 13]: 85 | Plant response rating, Ryegrass, Italian [3, 16]: 75 | Plant response rating, Ryegrass, Italian [3, 15]: 80 | Plant response rating, Ragweed [4, 12]: 80 | Plant response rating, Ragweed [4, 13]: 90 | Plant response rating, Ragweed [4, 16]: 50 | Plant response rating, Ragweed [4, 15]: 75 | Plant response rating, Beggarticks [5, 12]: 98 | Plant response rating, Beggarticks [5, 13]: 100 | Plant response rating, Beggarticks [5, 16]: 85 | Plant response rating, Beggarticks [5, 15]: 90 | Plant response rating, Horseweed [6, 12]: 75 | Plant response rating, Horseweed [6, 13]: 70 | Plant response rating, Horseweed [6, 16]: 50 | Plant response rating, Horseweed [6, 15]: 70 | Plant response rating, Corn [7, 12]: 5 | Plant response rating, Corn [7, 13]: 0 | Plant response rating, Corn [7, 16]: 5 | Plant response rating, Corn [7, 15]: 0 | Plant response rating, Pigweed, Palmer [8, 12]: 50 | Plant response rating, Pigweed, Palmer [8, 13]: 60 | Plant response rating, Pigweed, Palmer [8, 16]: 40 | Plant response rating, Pigweed, Palmer [8, 15]: 65 | Plant response rating, Kochia [9, 12]: 95 | Plant response rating, Kochia [9, 13]: 100 | Plant response rating, Kochia [9, 16]: 90 | Plant response rating, Kochia [9, 15]: 90 | Plant response rating, Field Bindweed [10, 12]: 90 | Plant response rating, Field Bindweed [10, 13]: 100 | Plant response rating, Field Bindweed [10, 16]: 60 | Plant response rating, Field Bindweed [10, 15]: 80 | Plant response rating, Panicum, Fall [11, 12]: 60 | Plant response rating, Panicum, Fall [11, 13]: 70 | Plant response rating, Panicum, Fall [11, 16]: 40 | Plant response rating, Panicum, Fall [11, 15]: 60

COc1nn(C)c(=O)c(-c2c(C)sc3ccc(Cl)cc23)c1O [Compound 100]
Plant response rating, Crabgrass, Brazil [1, 12]: 50 | Plant response rating, Crabgrass, Brazil [1, 13]: 40 | Plant response rating, Crabgrass, Brazil [1, 14]: 50 | Plant response rating, Crabgrass, Brazil [1, 15]: 25 | Plant response rating, Barnyardgrass [2, 12]: 40 | Plant response rating, Barnyardgrass [2, 13]: 30 | Plant response rating, Barnyardgrass [2, 14]: 50 | Plant response rating, Barnyardgrass [2, 15]: 30 | Plant response rating, Ryegrass, Italian [3, 12]: 60 | Plant response rating, Ryegrass, Italian [3, 13]: 70 | Plant response rating, Ryegrass, Italian [3, 14]: 85 | Plant response rating, Ryegrass, Italian [3, 15]: 50 | Plant response rating, Ragweed [4, 12]: 85 | Plant response rating, Ragweed [4, 13]: 90 | Plant response rating, Ragweed [4, 14]: 90 | Plant response rating, Ragweed [4, 15]: 75 | Plant response rating, Beggarticks [5, 12]: 80 | Plant response rating, Beggarticks [5, 13]: 90 | Plant response rating, Beggarticks [5, 14]: 100 | Plant response rating, Beggarticks [5, 15]: 75 | Plant response rating, Horseweed [6, 12]: 70 | Plant response rating, Horseweed [6, 13]: 75 | Plant response rating, Horseweed [6, 14]: 80 | Plant response rating, Horseweed [6, 15]: 35 | Plant response rating, Corn [7, 12]: 5 | Plant response rating, Corn [7, 13]: 0 | Plant response rating, Corn [7, 14]: 0 | Plant response rating, Corn [7, 15]: 0 | Plant response rating, Pigweed, Palmer [8, 12]: 30 | Plant response rating, Pigweed, Palmer [8, 13]: 40 | Plant response rating, Pigweed, Palmer [8, 14]: 50 | Plant response rating, Pigweed, Palmer [8, 15]: 20 | Plant response rating, Kochia [9, 12]: 80 | Plant response rating, Kochia [9, 13]: 80 | Plant response rating, Kochia [9, 14]: 100 | Plant response rating, Kochia [9, 15]: 60 | Plant response rating, Field Bindweed [10, 12]: 80 | Plant response rating, Field Bindweed [10, 13]: 90 | Plant response rating, Field Bindweed [10, 14]: 95 | Plant response rating, Field Bindweed [10, 15]: 75 | Plant response rating, Panicum, Fall [11, 12]: 50 | Plant response rating, Panicum, Fall [11, 13]: 70 | Plant response rating, Panicum, Fall [11, 14]: 80 | Plant response rating, Panicum, Fall [11, 15]: 30

CSCC(=O)Oc1c(C)nn(C)c(=O)c1-c1cccc2ccccc12 [Compound 171]
Plant response rating, Crabgrass, Brazil [1, 12]: 50 | Plant response rating, Crabgrass, Brazil [1, 13]: 50 | Plant response rating, Crabgrass, Brazil [1, 14]: 60 | Plant response rating, Crabgrass, Brazil [1, 15]: 40 | Plant response rating, Barnyardgrass [2, 12]: 45 | Plant response rating, Barnyardgrass [2, 13]: 50 | Plant response rating, Barnyardgrass [2, 14]: 50 | Plant response rating, Barnyardgrass [2, 15]: 40 | Plant response rating, Ryegrass, Italian [3, 12]: 75 | Plant response rating, Ryegrass, Italian [3, 13]: 85 | Plant response rating, Ryegrass, Italian [3, 14]: 90 | Plant response rating, Ryegrass, Italian [3, 15]: 65 | Plant response rating, Ragweed [4, 12]: 75 | Plant response rating, Ragweed [4, 13]: 90 | Plant response rating, Ragweed [4, 14]: 98 | Plant response rating, Ragweed [4, 15]: 60 | Plant response rating, Beggarticks [5, 12]: 95 | Plant response rating, Beggarticks [5, 13]: 100 | Plant response rating, Beggarticks [5, 14]: 100 | Plant response rating, Beggarticks [5, 15]: 80 | Plant response rating, Horseweed [6, 12]: 60 | Plant response rating, Horseweed [6, 13]: 70 | Plant response rating, Horseweed [6, 14]: 60 | Plant response rating, Horseweed [6, 15]: 50 | Plant response rating, Corn [7, 12]: 0 | Plant response rating, Corn [7, 13]: 0 | Plant response rating, Corn [7, 14]: 0 | Plant response rating, Corn [7, 15]: 0 | Plant response rating, Pigweed, Palmer [8, 12]: 50 | Plant response rating, Pigweed, Palmer [8, 13]: 60 | Plant response rating, Pigweed, Palmer [8, 14]: 70 | Plant response rating, Pigweed, Palmer [8, 15]: 50 | Plant response rating, Kochia [9, 12]: 95 | Plant response rating, Kochia [9, 13]: 100 | Plant response rating, Kochia [9, 14]: 100 | Plant response rating, Kochia [9, 15]: 90 | Plant response rating, Field Bindweed [10, 12]: 85 | Plant response rating, Field Bindweed [10, 13]: 100 | Plant response rating, Field Bindweed [10, 14]: 100 | Plant response rating, Field Bindweed [10, 15]: 70 | Plant response rating, Panicum, Fall [11, 12]: 50 | Plant response rating, Panicum, Fall [11, 13]: 60 | Plant response rating, Panicum, Fall [11, 14]: 75 | Plant response rating, Panicum, Fall [11, 15]: 40
